Experimental data reported in patent US20240254118A1, “PRMT5 INHIBITORS AND USES THEREOF” (Gilead Sciences, Inc., priority 2022, published 2024).
pEC50: −log10 of the molar value.

Columns and labels:
[1] = tested on: SDMA signal (PRMT5 inhibition) in HCT116 MTAP-deleted cells; experiment: Symmetric di-methyl arginine image-based high content screen assay (SDMA assay), HCT116 MTAP-deleted; assay type: cell-based; details: SDMA assay; for pEC50: Homo sapiens, HCT-116, 72 h, 3 days of treatment, cell line not given, taken as HCT116 MTAP-deleted, read-out: EC50 (SDMA assay); for EC50 selectivity (SDMA assay): taken as HCT116 WT versus MTAP-deleted
Method in brief: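 HCT116 MTAP-deleted cells treated with compound until Day 3, then formalin-fixed, permeabilized and immunostained for SDMA, with DAPI nuclear counterstain. Imaged by high-content microscopy; SDMA read-out is mean Alexa 488 intensity per DAPI-defined cell, reflecting PRMT5 inhibition.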

[2] = tested on: HCT116 MTAP-deleted cells; experiment: Cell viability assay (CellTiter-Glo, 7 days), HCT116 MTAP-deleted; details: Homo sapiens, HCT-116, 168 h
Procedure: Control compounds were analyzed in parallel each time for quality control.
In Brief, on Day −1, a serial dilution of stock compounds in DMSO was performed using BioMek liquid handlers and dispensed using Echo acoustic dispenser into 384 well plates. Both tool compounds and sample compounds were spotted in the same plate for a dose response of PRMT5 inhibitors. Compound plates were stored as frozen until the cells were ready for seeding.
On Day 0, 100 HCT WT or HCT116 MTAP-deleted cells were seeded in compound-containing 384 well plates (50 μl per well) in RPMI 1640 media supplemented with 10% heat inactivated fetal bovine serum, Glutamax and penicillin streptomycin using EL460 liquid dispenser 5 μl cassette (BioTek, part no. 7170011). After equilibrating the plate in room temperature, the cells were incubated for 7 days inside the sealed incubator set at 37 °C with 90% humidity and 5% CO2.
On Day 7, the viability of cells was measured using a CTG assay kit (CellTitre-Glo; Promega cat no. G7573). Shortly, 40 μl per well of luminescent cell viability assay reagent were dispensed using EL460 liquid dispenser 5 μl cassette. CTG luminescence signal was measured using an EnVision plate reader (PerkinElmer) in accordance with manufacturer's instruction. The CC50 values for each compound after 7 days of treatment were calculated using 4 parameter non-linear logistical curve fit.

Row | Structure (SMILES) | pEC50 [1] | EC50 selectivity (SDMA assay) [1] | CC50 [2] [nM]
1 | Cn1ncc2c(N)nc3ccc(C(=O)N(Cc4ccc(C(F)(F)F)cn4)N4CC(C(F)(F)F)OC4=O)cc3c21 (stereo not drawn) [Example 178, 4-amino-1-methyl-N-(2-oxo-5-(trifluoromethyl)oxazolidin-3-yl)-N-((5-(trifluoromethyl)pyridin-2-yl)methyl)-1H-pyrazolo[4,3-c]quinoline-8-carboxamide] | < 8.30 | 138 | 100 to 1000
2 | COCCN(C)N(Cc1ccc(C(F)(F)F)cn1)C(=O)c1ccc2nc(N)c3cnn(C)c3c2c1 [Example 179, 4-amino-N′-(2-methoxyethyl)-N′,1-dimethyl-N-((5-(trifluoromethyl)pyridin-2-yl)methyl)-1H-pyrazolo[4,3-c]quinoline-8-carbohydrazide] | > 9.00 | 318 | < 100
3 | COCCN(C)N(Cc1ccc(C(F)(F)F)cn1)C(=O)c1cc2c(cc1F)nc(N)c1cnn(C)c12 [Example 180, 4-amino-7-fluoro-N′-(2-methoxyethyl)-N′,1-dimethyl-N-((5-(trifluoromethyl)pyridin-2-yl)methyl)-1H-pyrazolo[4,3-c]quinoline-8-carbohydrazide] | > 9.00 | 50 | < 100
4 | CC(=O)N(C)N(Cc1ccccc1F)C(=O)c1ccc2nc(N)c3cnn(C)c3c2c1 [Example 181, N′-acetyl-4-amino-N-(2-fluorobenzyl)-N′,1-dimethyl-1H-pyrazolo[4,3-c]quinoline-8-carbohydrazide] | 8.30 to 9.00 | 441 | 100 to 1000
5 | CC(=O)N(C)N(Cc1ccccc1F)C(=O)c1cc2c(cc1F)nc(N)c1cnn(C)c12 [Example 182, N′-acetyl-4-amino-7-fluoro-N-(2-fluorobenzyl)-N′,1-dimethyl-1H-pyrazolo[4,3-c]quinoline-8-carbohydrazide] | > 9.00 | 209 | < 100
6 | CC(=O)N(C)N(Cc1ccccc1Cl)C(=O)c1ccc2nc(N)c3cnn(C)c3c2c1 [Example 183, N′-acetyl-4-amino-N-(2-chlorobenzyl)-N′,1-dimethyl-1H-pyrazolo[4,3-c]quinoline-8-carbohydrazide] | 8.30 to 9.00 | 300 | < 100
7 | CN(C(=O)c1cccnn1)N(Cc1ccc(C(F)(F)F)cn1)C(=O)c1ccc2nc(N)c3cnn(C)c3c2c1 [Example 184, 14-amino-N′,1-dimethyl-N′-(pyridazine-3-carbonyl)-N-((5-(trifluoromethyl)pyridin-2-yl)methyl)-1H-pyrazolo[4,3-c]quinoline-8-carbohydrazide] | < 8.30 | 195 | > 1000
8 | CN(C(=O)C12CC(CO1)C2)N(Cc1ccc(C(F)(F)F)cn1)C(=O)c1ccc2nc(N)c3cnn(C)c3c2c1 [Example 185, 4-amino-N′,1-dimethyl-N′-(2-oxabicyclo[2.1.1]hexane-1-carbonyl)-N-[[5-(trifluoromethyl)-2-pyridyl]methyl]pyrazolo[4,3-c]quinoline-8-carbohydrazide] | > 9.00 | 33 | < 100
9 | CN(C(=O)C12COC(C1)C2)N(Cc1ccc(C(F)(F)F)cn1)C(=O)c1ccc2nc(N)c3cnn(C)c3c2c1 [Example 186, 4-amino-N′,1-dimethyl-N′-(2-oxabicyclo[2.1.1]hexane-4-carbonyl)-N-[[5-(trifluoromethyl)-2-pyridyl]methyl]pyrazolo[4,3-c]quinoline-8-carbohydrazide] | 8.30 to 9.00 | 66 | 100 to 1000
10 | COC12CC(C(=O)N(C)N(Cc3ccc(C(F)(F)F)cn3)C(=O)c3ccc4nc(N)c5cnn(C)c5c4c3)(C1)C2 [Example 187, 4-amino-N′-(3-methoxybicyclo[1.1.1]pentane-1-carbonyl)-N′,1-dimethyl-N-[[5-(trifluoromethyl)-2-pyridyl]methyl]pyrazolo[4,3-c]quinoline-8-carbohydrazide] | 8.30 to 9.00 | 50 | < 100
11 | CN(C(=O)C12CC(C#N)(C1)C2)N(Cc1ccc(C(F)(F)F)cn1)C(=O)c1ccc2nc(N)c3cnn(C)c3c2c1 [Example 188, 4-amino-N′-(3-cyanobicyclo[1.1.1]pentane-1-carbonyl)-N′,1-dimethyl-N-[[5-(trifluoromethyl)-2-pyridyl]methyl]pyrazolo[4,3-c]quinoline-8-carbohydrazide] | < 8.30 | 62 | 100 to 1000
12 | CN(C(=O)C(C)(F)F)N(Cc1ccc(C(F)(F)F)cn1)C(=O)c1ccc2nc(N)c3cnn(C)c3c2c1 [Example 189, 4-amino-N′-(2,2-difluoropropanoyl)-N′,1-dimethyl-N-[[5-(trifluoromethyl)-2-pyridyl]methyl]pyrazolo[4,3-c]quinoline-8-carbohydrazide] | > 9.00 | 13 | < 100
13 | Cn1ncc2c(N)nc3ccc(C(=O)N(Cc4ccc(C(F)(F)F)cn4)N4CC5(CC5)OC4=O)cc3c21 [Example 190, 4-amino-1-methyl-N-(5-oxo-4-oxa-6-azaspiro[2.4]heptan-6-yl)-N-[[5-(trifluoromethyl)-2-pyridyl]methyl]pyrazolo[4,3-c]quinoline-8-carboxamide] | > 9.00 | 144 | < 100
14 | Cn1ncc2c(N)nc3ccc(C(=O)N(Cc4ccc(C(F)(F)F)cn4)N4CC5(COC5)OC4=O)cc3c21 [Example 191, 4-amino-1-methyl-N-(6-oxo-2,5-dioxa-7-azaspiro[3.4]octan-7-yl)-N-[[5-(trifluoromethyl)-2-pyridyl]methyl]pyrazolo[4,3-c]quinoline-8-carboxamide] | < 8.30 | 103 | 100 to 1000
15 | CN(C(=O)C1(C#N)CCC1)N(Cc1ccc(C(F)(F)F)cn1)C(=O)c1ccc2nc(N)c3cnn(C)c3c2c1 [Example 192, 4-amino-N′-(1-cyanocyclobutanecarbonyl)-N′,1-dimethyl-N-[[5-(trifluoromethyl)-2-pyridyl]methyl]pyrazolo[4,3-c]quinoline-8-carbohydrazide] | 8.30 to 9.00 | 185 | 100 to 1000
16 | CN(C(=O)C1(F)CC1)N(Cc1ccc(C(F)(F)F)nn1)C(=O)c1ccc2nc(N)c3cnn(C)c3c2c1 [Example 193, 4-amino-N′-(1-fluorocyclopropanecarbonyl)-N′,1-dimethyl-N-[[6-(trifluoromethyl)pyridazin-3-yl]methyl]pyrazolo[4,3-c]quinoline-8-carbohydrazide] | > 9.00 | 202 | < 100

Further lines, with some results ahead:

Row | pEC50 [1] | EC50 selectivity (SDMA assay) [1] | Structure (SMILES) | CC50 [2] [nM]
17 | > 9.00 | 68 | CN(C(=O)C1(F)CC1)N(Cc1ccc(C(F)(F)F)nn1)C(=O)c1cc2c(cc1F)nc(N)c1cnn(C)c12 [Example 194, 4-amino-7-fluoro-N′-(1-fluorocyclopropanecarbonyl)-N′, 1-dimethyl-N-[[6-(trifluoromethyl)pyridazin-3-yl]methyl]pyrazolo[4,3-c]quinoline-8-carbohydrazide] | < 100
18 | > 9.00 | 146 | CN(C(=O)C(F)F)N(Cc1ccc(C(F)(F)F)cn1)C(=O)c1ccc2nc(N)c3cnn(C)c3c2c1 [Example 195, 4-amino-N′-(2,2-difluoroacetyl)-N′,1-dimethyl-N-[[5-(trifluoromethyl)-2-pyridyl]methyl]pyrazolo[4,3-c]quinoline-8-carbohydrazide] | < 100
19 | 8.30 to 9.00 | 137 | CC(=O)N(C)N(Cc1ccc2ncsc2c1)C(=O)c1ccc2nc(N)c3cnn(C)c3c2c1 [Example 196, N′-acetyl-4-amino-N-(1,3-benzothiazol-6-ylmethyl)-N′,1-dimethyl-pyrazolo[4,3-c]quinoline-8-carbohydrazide] | < 100
20 | > 9.00 | 61 | CN(C(=O)[C@H]1CCO1)N(Cc1ccc(C(F)(F)F)cc1F)C(=O)c1ccc2nc(N)c3cnn(C)c3c2c1 [Example 197, 4-amino-N-[[2-fluoro-4-(trifluoromethyl)phenyl]methyl]-N′,1-dimethyl-N′-[(2R)-oxetane-2-carbonyl]pyrazolo[4,3-c]quinoline-8-carbohydrazide] | < 100
21 | > 9.00 | 57 | CN(C(=O)[C@@H]1CCO1)N(Cc1ccc(C(F)(F)F)cc1F)C(=O)c1ccc2nc(N)c3cnn(C)c3c2c1 [Example 198, 4-amino-N-[[2-fluoro-4-(trifluoromethyl)phenyl]methyl]-N′,1-dimethyl-N′-[(2S)-oxetane-2-carbonyl]pyrazolo[4,3-c]quinoline-8-carbohydrazide] | < 100
22 | > 9.00 | 26 | Cn1ncc2c(N)nc3ccc(C(=O)N(Cc4ccc(C(F)(F)F)cc4F)n4ccnc4)cc3c21 [Example 199, 4-amino-N-[[2-fluoro-4-(trifluoromethyl)phenyl]methyl]-N-imidazol-1-yl-1-methyl-pyrazolo[4,3-c]quinoline-8-carboxamide] | < 100
23 | > 9.00 | 6 | Cn1ncc2c(N)nc3cc(F)c(C(=O)N(Cc4ccc(C(F)(F)F)cc4F)n4ccnc4)cc3c21 [Example 200, 4-amino-7-fluoro-N-[[2-fluoro-4-(trifluoromethyl)phenyl]methyl]-N-imidazol-1-yl-1-methyl-pyrazolo[4,3-c]quinoline-8-carboxamide] | < 100
